ChEMBL document CHEMBL2440076, “New triarylpyrazoles as broad-spectrum anticancer agents: design, synthesis, and biological evaluation” (Eur J Med Chem, 2013)

Key:
Type in all cases: functional
[1] = test system: MOLT-4; test: Growth inhibition of human MOLT4 cells assessed as cell growth at 10 uM after 48 hrs by sulforhodamine B assay; settings: MOLT-4, 48 h, read-out: Activity
[2] = test system: NCI-H522; test: Growth inhibition of human NCI-H522 cells assessed as cell growth at 10 uM after 48 hrs by sulforhodamine B assay; settings: NCI-H522, 48 h, read-out: Activity
[3] = Growth inhibition of human Hs 578T cells assessed as cell growth at 10 uM after 48 hrs by sulforhodamine B assay; settings: read-out: Activity
[4] = test system: A498; test: Growth inhibition of human A498 cells assessed as cell growth at 10 uM after 48 hrs by sulforhodamine B assay; settings: A498, 48 h, read-out: Activity
[5] = test system: SK-OV-3; test: Growth inhibition of human SKOV3 cells assessed as cell growth at 10 uM after 48 hrs by sulforhodamine B assay; settings: SK-OV-3, 48 h, read-out: Activity
[6] = Growth inhibition of human HCC2998 cells assessed as cell growth at 10 uM after 48 hrs by sulforhodamine B assay; settings: HCC 2998, 48 h, read-out: Activity
[7] = test system: NCI-H460; test: Growth inhibition of human NCI-H460 cells assessed as cell growth at 10 uM after 48 hrs by sulforhodamine B assay; settings: NCI-H460, 48 h, read-out: Activity
[8] = test system: TK-10; test: Growth inhibition of human TK10 cells assessed as cell growth at 10 uM after 48 hrs by sulforhodamine B assay; settings: TK-10, 48 h, read-out: Activity
[9] = test system: OVCAR-4; test: Growth inhibition of human OVCAR4 cells assessed as cell growth at 10 uM after 48 hrs by sulforhodamine B assay; settings: OVCAR-4, 48 h, read-out: Activity
[10] = test system: PC-3; test: Growth inhibition of human PC3 cells assessed as cell growth at 10 uM after 48 hrs by sulforhodamine B assay; settings: PC-3, 48 h, read-out: Activity
[11] = test system: SK-MEL-5; test: Growth inhibition of human SK-MEL-5 cells assessed as cell growth at 10 uM after 48 hrs by sulforhodamine B assay; settings: SK-MEL-5, 48 h, read-out: Activity
[12] = test system: U-251; test: Growth inhibition of human U251 cells assessed as cell growth at 10 uM after 48 hrs by sulforhodamine B assay; settings: U-251, 48 h, read-out: Activity
[13] = test system: KM12; test: Growth inhibition of human KM12 cells assessed as cell growth at 10 uM after 48 hrs by sulforhodamine B assay; settings: KM12, 48 h, read-out: Activity
[14] = test system: A549; test: Growth inhibition of human A549/ATCC cells assessed as cell growth at 10 uM after 48 hrs by sulforhodamine B assay; settings: A549, 48 h, read-out: Activity
[15] = test system: T47D; test: Growth inhibition of human T47D cells assessed as cell growth at 10 uM after 48 hrs by sulforhodamine B assay; settings: read-out: Activity
[16] = test system: HOP-62; test: Growth inhibition of human HOP62 cells assessed as cell growth at 10 uM after 48 hrs by sulforhodamine B assay; settings: HOP-62, 48 h, read-out: Activity
[17] = test system: RPMI-8226; test: Growth inhibition of human RPMI8226 cells assessed as cell growth at 10 uM after 48 hrs by sulforhodamine B assay; settings: RPMI-8226, 48 h, read-out: Activity
[18] = test system: HCT-15; test: Growth inhibition of human HCT15 cells assessed as cell growth at 10 uM after 48 hrs by sulforhodamine B assay; settings: HCT-15, 48 h, read-out: Activity
[19] = test system: BT-549; test: Growth inhibition of human BT549 cells assessed as cell growth at 10 uM after 48 hrs by sulforhodamine B assay; settings: BT-549, 48 h, read-out: Activity
[20] = test system: SN12C; test: Growth inhibition of human SN12C cells assessed as cell growth at 10 uM after 48 hrs by sulforhodamine B assay; settings: read-out: Activity
[21] = test system: MDA-MB-468; test: Growth inhibition of human MDA-MB-468 cells assessed as cell growth at 10 uM after 48 hrs by sulforhodamine B assay; settings: MDA-MB-468, 48 h, read-out: Activity

O=C(Nc1cccc(-n2cc(-c3ccncc3)c(-c3ccc(Cl)c(O)c3)n2)c1)c1ccccc1
growth at 10 µM [1]: 69.5%
growth at 10 µM [2]: 42.3%
growth at 10 µM [3]: 48.4%
growth at 10 µM [4]: 72.3%
growth at 10 µM [5]: 80.1%
growth at 10 µM [6]: 76.8%
growth at 10 µM [7]: 48.7%
growth at 10 µM [8]: 109%
growth at 10 µM [9]: 40.7%
growth at 10 µM [10]: 50.3%
growth at 10 µM [11]: 59.4%
growth at 10 µM [12]: 75.4%
growth at 10 µM [13]: 70.1%
growth at 10 µM [14]: 52.6%
growth at 10 µM [15]: 73.9%
growth at 10 µM [16]: 46.7%
growth at 10 µM [17]: 60.5%
growth at 10 µM [18]: 58.2%
growth at 10 µM [19]: 83.4%
growth at 10 µM [20]: 79.3%
growth at 10 µM [21]: 64.1%

O=C(Nc1cccc(-n2cc(-c3ccncc3)c(-c3ccc(Cl)c(O)c3)n2)c1)c1ccc(Cl)c(C(F)(F)F)c1
growth at 10 µM [1]: 79.5%
growth at 10 µM [2]: 94.4%
growth at 10 µM [3]: 91.9%
growth at 10 µM [4]: 105%
growth at 10 µM [5]: 102%
growth at 10 µM [6]: 123%
growth at 10 µM [7]: 104%
growth at 10 µM [8]: 119%
growth at 10 µM [9]: 111%
growth at 10 µM [10]: 85.7%
growth at 10 µM [11]: 95.2%
growth at 10 µM [12]: 95.9%
growth at 10 µM [13]: 88.4%
growth at 10 µM [14]: 88.8%
growth at 10 µM [15]: 100%
growth at 10 µM [16]: 99.4%
growth at 10 µM [17]: 98.1%
growth at 10 µM [18]: 92.9%
growth at 10 µM [19]: 94.5%
growth at 10 µM [20]: 98.6%
growth at 10 µM [21]: 98.2%

COc1cc(-c2nn(-c3cccc(NC(=O)Nc4ccccc4)c3)cc2-c2ccncc2)ccc1Cl
growth at 10 µM [1]: 57%
growth at 10 µM [2]: 67.4%
growth at 10 µM [3]: 82.7%
growth at 10 µM [4]: 79.7%
growth at 10 µM [5]: 97.1%
growth at 10 µM [6]: 119%
growth at 10 µM [7]: 93.7%
growth at 10 µM [8]: 116%
growth at 10 µM [9]: 90.5%
growth at 10 µM [10]: 52.5%
growth at 10 µM [11]: 79.9%
growth at 10 µM [12]: 85%
growth at 10 µM [13]: 73.7%
growth at 10 µM [14]: 79.3%
growth at 10 µM [15]: 75.6%
growth at 10 µM [16]: 87.2%
growth at 10 µM [17]: 68%
growth at 10 µM [18]: 84.5%
growth at 10 µM [19]: 89.9%
growth at 10 µM [20]: 86.2%
growth at 10 µM [21]: 83.4%
